Measured values as given in ChEMBL document CHEMBL3217552, “Novel benzothiazole derivatives with a broad antifungal spectrum: design, synthesis and structureactivity relationships” (2013).
Values after ≈ are worked out from the molar mass of the structure shown. Active and inactive are the calls of the source. The calls are words filed in the database; no cut-off is given here.

How the values were obtained:
[1] = tested on: Nakaseomyces glabratus; assay: Antifungal activity against Candida glabrata after 24 hrs by serial dilution method; assay type: functional
[2] = tested on: Nannizzia gypsea; assay: Antifungal activity against Microsporum gypseum after 72 hrs by serial dilution method; assay type: functional
[3] = tested on: Candida albicans; assay: Antifungal activity against Candida albicans after 24 hrs by serial dilution method; assay type: functional
[4] = tested on: Cryptococcus neoformans; assay: Antifungal activity against Cryptococcus neoformans after 72 hrs by serial dilution method; assay type: functional
[5] = tested on: Candida parapsilosis; assay: Antifungal activity against Candida parapsilosis after 24 hrs by serial dilution method; assay type: functional; conditions: Lodderomyces parapsilosis
[6] = tested on: Trichophyton rubrum; assay: Antifungal activity against Trichophyton rubrum after 72 hrs by serial dilution method; assay type: functional
[7] = tested on: Candida albicans; assay: Antifungal activity against Candida albicans SC5314 infected in Caenorhabditis elegans assessed as nematode survival at 32 ug/ml after 144 hrs by serial dilution method; assay type: functional, organism-based
[8] = tested on: Candida albicans; assay: Antifungal activity against Candida albicans SC5314 infected in Caenorhabditis elegans assessed as nematode survival at 16 ug/ml after 144 hrs by serial dilution method; assay type: functional; conditions: SC5314, 144 h

Row | SMILES | MIC80 [1] | MIC80 [2] | MIC80 [3] | MIC80 [4] | MIC80 [5] | MIC80 [6] | Activity [7] | survival at 16 µg/mL [8]
1 | COc1ccc(CN[C@H]2CCC[C@@H](C(=O)Nc3ccc4nc(NC(=O)C5CCCC5)sc4c3)C2)c2ccccc12 (relative stereo) | > 64 µg/mL | > 64 µg/mL | > 64 µg/mL | > 64 µg/mL | > 64 µg/mL | > 64 µg/mL | – | –
2 | OC(Cn1cncn1)(Cn1cncn1)c1ccc(F)cc1F [FLUCONAZOLE] | 2 µg/mL (≈ 6.53 µM) | 32 µg/mL (≈ 104 µM) | 0.5 µg/mL (≈ 1.63 µM) | 16 µg/mL (≈ 52.2 µM) | 2 µg/mL (≈ 6.53 µM) | 4 µg/mL (≈ 13.1 µM) | Active | –
3 | O=C(Nc1nc2ccc(NC(=O)[C@@H]3CCC[C@H](NCc4ccnc5ccccc45)C3)cc2s1)C1CCCC1 (relative stereo) | > 64 µg/mL | 16 µg/mL (≈ 30.3 µM) | > 64 µg/mL | > 64 µg/mL | > 64 µg/mL | > 64 µg/mL | – | –
4 | O=C(Nc1nc2ccc(NC(=O)[C@@H]3CCC[C@H](NCc4ccc5ccccc5c4)C3)cc2o1)C1CCCC1 (relative stereo) | > 64 µg/mL | 1 µg/mL (≈ 1.96 µM) | > 64 µg/mL | > 64 µg/mL | > 64 µg/mL | > 64 µg/mL | – | –
5 | O=C(Nc1nc2ccc(NC(=O)[C@@H]3CCC[C@H](NCc4cc5ccccc5nc4Cl)C3)cc2s1)C1CCCC1 (relative stereo) | > 64 µg/mL | > 64 µg/mL | > 64 µg/mL | > 64 µg/mL | > 64 µg/mL | > 64 µg/mL | – | –
6 | O=C(Nc1nc2ccc(NC(=O)[C@@H]3CCC[C@H](NCc4ccc5ccccc5n4)C3)cc2s1)C1CCCC1 (relative stereo) | > 64 µg/mL | > 64 µg/mL | > 64 µg/mL | > 64 µg/mL | > 64 µg/mL | > 64 µg/mL | – | –
7 | O=C(Nc1nc2ccc(NC(=O)[C@@H]3CCC[C@H](NCc4ccc5ccccc5c4)C3)cc2s1)C1CCCC1 (racemic) | > 64 µg/mL | > 64 µg/mL | 4 µg/mL (≈ 7.59 µM) | > 64 µg/mL | > 64 µg/mL | > 64 µg/mL | – | –
8 | O=C(Nc1ccc2nc(NC(=O)[C@@H]3CCC[C@H](NCc4ccc5ccccc5c4)C3)sc2c1)C1CCCC1 (relative stereo) | 16 µg/mL (≈ 30.4 µM) | 32 µg/mL (≈ 60.8 µM) | 8 µg/mL (≈ 15.2 µM) | 32 µg/mL (≈ 60.8 µM) | > 64 µg/mL | 32 µg/mL (≈ 60.8 µM) | – | –
9 | O=C(Nc1ccc2nc(NC(=O)[C@@H]3CCC[C@H](NCc4ccnc5ccccc45)C3)sc2c1)C1CCCC1 (relative stereo) | 16 µg/mL (≈ 30.3 µM) | > 64 µg/mL | > 64 µg/mL | 16 µg/mL (≈ 30.3 µM) | > 64 µg/mL | > 64 µg/mL | – | –
10 | COc1ccc2ccccc2c1CN[C@H]1CCC[C@@H](C(=O)Nc2ccc3nc(NC(=O)C4CCCC4)sc3c2)C1 (relative stereo) | > 64 µg/mL | 64 µg/mL (≈ 115 µM) | > 64 µg/mL | > 64 µg/mL | > 64 µg/mL | 64 µg/mL (≈ 115 µM) | – | –
11 | O=C(Nc1nc2ccc(NC(=O)[C@@H]3CCC[C@H](NCc4cccc5cccnc45)C3)cc2s1)C1CCCC1 (relative stereo) | > 64 µg/mL | > 64 µg/mL | > 64 µg/mL | > 64 µg/mL | > 64 µg/mL | > 64 µg/mL | – | –
12 | O=C(Nc1nc2ccc(NC(=O)[C@@H]3CCC[C@H](NCc4ccc5ccccc5c4Br)C3)cc2s1)C1CCCC1 (relative stereo) | > 64 µg/mL | 64 µg/mL (≈ 106 µM) | > 64 µg/mL | > 64 µg/mL | > 64 µg/mL | 64 µg/mL (≈ 106 µM) | – | –
13 | COc1ccc2cc(CN[C@H]3CCC[C@@H](C(=O)Nc4ccc5nc(NC(=O)C6CCCC6)sc5c4)C3)ccc2c1 (relative stereo) | > 64 µg/mL | > 64 µg/mL | > 64 µg/mL | > 64 µg/mL | > 64 µg/mL | > 64 µg/mL | – | –
14 | O=C(Nc1nc2ccc(NC(=O)[C@@H]3CCC[C@H](NCc4cnc5ccccc5c4)C3)cc2s1)C1CCCC1 | > 64 µg/mL | > 64 µg/mL | 8 µg/mL (≈ 15.2 µM) | 4 µg/mL (≈ 7.58 µM) | 8 µg/mL (≈ 15.2 µM) | 8 µg/mL (≈ 15.2 µM) | – | –
15 | O=C(Nc1ccc2nc(NC(=O)[C@@H]3CCC[C@H](NCc4cnc5ccccc5c4)C3)sc2c1)C1CCCC1 (relative stereo) | > 64 µg/mL | 64 µg/mL (≈ 121 µM) | > 64 µg/mL | > 64 µg/mL | > 64 µg/mL | > 64 µg/mL | – | –
16 | O=C(Nc1nc2ccc(NC(=O)[C@@H]3CCC[C@H](NCc4ccc5ncccc5c4)C3)cc2s1)C1CCCC1 (relative stereo) | 0.125 µg/mL (≈ 0.237 µM) | > 64 µg/mL | 4 µg/mL (≈ 7.58 µM) | 4 µg/mL (≈ 7.58 µM) | 4 µg/mL (≈ 7.58 µM) | 4 µg/mL (≈ 7.58 µM) | – | 60%
17 | O=C(Nc1nc(-c2ccc(NC(=O)[C@H]3CCC[C@@H](NCc4ccc5ccccc5c4)C3)cc2)cs1)C1CCCC1 (relative stereo) | > 64 µg/mL | 0.125 µg/mL (≈ 0.226 µM) | > 64 µg/mL | > 64 µg/mL | > 64 µg/mL | 32 µg/mL (≈ 57.9 µM) | – | –
18 | O=C(Nc1ccc2nc(NC(=O)[C@@H]3CCC[C@H](NCc4ccc5ccccc5n4)C3)sc2c1)C1CCCC1 (relative stereo) | > 64 µg/mL | 64 µg/mL (≈ 121 µM) | > 64 µg/mL | > 64 µg/mL | > 64 µg/mL | > 64 µg/mL | – | –
19 | O=C(Nc1nc2ccc(NC(=O)[C@@H]3CCC[C@H](NCC4CCc5ncccc5C4)C3)cc2s1)C1CCCC1 (relative stereo) | > 64 µg/mL | > 64 µg/mL | 16 µg/mL (≈ 30.1 µM) | > 64 µg/mL | 64 µg/mL (≈ 120 µM) | > 64 µg/mL | – | –
20 | O=C(Nc1ccc2nc(NC(=O)[C@@H]3CCC[C@H](NCc4ccc5ncccc5c4)C3)sc2c1)C1CCCC1 (relative stereo) | > 64 µg/mL | 32 µg/mL (≈ 60.6 µM) | > 64 µg/mL | > 64 µg/mL | > 64 µg/mL | > 64 µg/mL | – | –
21 | O=C(Nc1nc2ccc(NC(=O)[C@@H]3CCC[C@H](NCc4cccc5ccccc45)C3)cc2s1)C1CCCC1 (relative stereo) | > 64 µg/mL | > 64 µg/mL | > 64 µg/mL | > 64 µg/mL | > 64 µg/mL | > 64 µg/mL | – | –
22 | O=C(Nc1nc2ccc(NC(=O)[C@@H]3CCC[C@H](NCc4ccc5ccccc5n4)C3)cc2o1)C1CCCC1 (relative stereo) | > 64 µg/mL | 1 µg/mL (≈ 1.95 µM) | > 64 µg/mL | > 64 µg/mL | > 64 µg/mL | > 64 µg/mL | – | –
23 | CCOc1ccc2ccccc2c1CN[C@H]1CCC[C@@H](C(=O)Nc2ccc3nc(NC(=O)C4CCCC4)sc3c2)C1 (relative stereo) | > 64 µg/mL | 64 µg/mL (≈ 112 µM) | > 64 µg/mL | > 64 µg/mL | > 64 µg/mL | 64 µg/mL (≈ 112 µM) | – | –
24 | O=C(Nc1nc2ccc(NC(=O)[C@@H]3CCC[C@H](NCC4CNc5ccccc5C4)C3)cc2s1)C1CCCC1 (relative stereo) | > 64 µg/mL | 64 µg/mL (≈ 120 µM) | 32 µg/mL (≈ 60.2 µM) | > 64 µg/mL | > 64 µg/mL | > 64 µg/mL | – | –
